Measured values as given in publication PMC8241580 (Bioorganic Chemistry, 2021).
Several values for one entry are separate records, joined by “and”; a condition that tells them apart may be missing. Equal values may be shown once.

Columns and labels:
SARS-CoV-2 = experiment: Antiviral assay, virus-induced cytopathic effect; assay type: cell-based, SARS-CoV-2 (hCoV-19/Egypt/NRC-03/2020); conditions: CC50 VERO-E6 / IC50 SARS-CoV-2
[1] = tested on: PaCa-2 (pancreatic) cancer cell line; experiment: MTT antiproliferative assay, PaCa-2; assay type: cell-based; conditions: for IC50: PaCa-2, 72 h, read-out: IC50 (μM) ± SE PaCa-2; for Potency against PaCa2 relative to Sunitinib: ratio of IC50 values
[2] = tested on: MCF7 (breast) cancer cell line; experiment: MTT antiproliferative assay, MCF7; assay type: cell-based; conditions: for IC50: Homo sapiens, MCF7, 72 h, read-out: IC50 (μM) ± SE MCF7
[3] = tested on: HCT116 (colon) cancer cell line; experiment: MTT antiproliferative assay, HCT116; assay type: cell-based; conditions: Homo sapiens, HCT-116, 72 h, read-out: IC50 (μM) ± SE HCT116
[4] = tested on: chick embryo chorioallantoic membrane (CAM) blood vessels; experiment: CAM assay; assay type: in vivo, chicken; conditions: 20 μl of 660 μM, 3 days of treatment, n = 4, vehicle control 14.00 ± 3.00
VEGFR-2 = VEGFR-2 (Homo sapiens, UniProt P35968); experiment: VEGFR-2; assay type: biochemical; conditions: for VEGFR-2 inhibitory potency relative to Sunitinib: ratio of IC50 values
c-kit = c-kit (Homo sapiens, UniProt P10721); experiment: c-Kit ADP-Glo kinase assay; assay type: biochemical
MCF7 cells [5] = experiment: Cell cycle analysis by PI-flow cytometry; assay type: cell-based; conditions: MCF7, compound at its IC50; for DNA content (%) Pre-G1: control 1.49; for DNA content (%) G2/M: control 5.09; for DNA content (%) S: control 41.12; for DNA content (%) G0-G1: control 53.79
MCF7 cells [6] = experiment: Annexin V-FITC apoptosis/necrosis study; assay type: cell-based; conditions: MCF7, compound at its IC50; for Apoptosis (%) Late: control 0.13; for Apoptosis (%) Early: control 0.49; for Necrosis: control 0.87; for Apoptosis (%) Total: control 1.49

Chain of c-kit (P10721 26-976): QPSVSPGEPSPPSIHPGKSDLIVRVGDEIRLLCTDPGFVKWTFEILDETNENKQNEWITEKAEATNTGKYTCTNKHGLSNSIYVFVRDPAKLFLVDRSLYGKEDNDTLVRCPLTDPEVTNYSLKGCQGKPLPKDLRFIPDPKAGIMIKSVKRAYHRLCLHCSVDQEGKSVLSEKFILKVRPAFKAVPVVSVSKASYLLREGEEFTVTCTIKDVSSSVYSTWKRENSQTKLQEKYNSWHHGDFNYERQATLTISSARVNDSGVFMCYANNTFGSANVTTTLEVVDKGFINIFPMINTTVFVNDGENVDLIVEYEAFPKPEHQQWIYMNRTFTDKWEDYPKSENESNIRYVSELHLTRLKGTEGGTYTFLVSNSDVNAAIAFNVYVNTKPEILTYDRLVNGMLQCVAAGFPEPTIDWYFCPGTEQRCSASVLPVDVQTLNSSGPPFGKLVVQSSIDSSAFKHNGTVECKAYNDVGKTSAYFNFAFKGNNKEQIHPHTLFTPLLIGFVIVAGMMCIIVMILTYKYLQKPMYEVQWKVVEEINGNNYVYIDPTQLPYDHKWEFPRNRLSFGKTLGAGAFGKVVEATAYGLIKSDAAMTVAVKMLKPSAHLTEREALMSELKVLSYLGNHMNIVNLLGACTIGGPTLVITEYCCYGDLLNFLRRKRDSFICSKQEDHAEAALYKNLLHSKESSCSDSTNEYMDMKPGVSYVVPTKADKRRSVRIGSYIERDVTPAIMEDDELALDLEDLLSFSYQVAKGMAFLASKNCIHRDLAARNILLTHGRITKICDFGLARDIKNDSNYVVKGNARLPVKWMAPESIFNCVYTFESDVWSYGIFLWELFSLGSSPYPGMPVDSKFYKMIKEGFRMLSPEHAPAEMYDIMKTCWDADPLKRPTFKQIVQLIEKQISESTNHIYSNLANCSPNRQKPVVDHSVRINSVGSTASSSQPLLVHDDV
Chain of VEGFR-2 (P35968 20-1356): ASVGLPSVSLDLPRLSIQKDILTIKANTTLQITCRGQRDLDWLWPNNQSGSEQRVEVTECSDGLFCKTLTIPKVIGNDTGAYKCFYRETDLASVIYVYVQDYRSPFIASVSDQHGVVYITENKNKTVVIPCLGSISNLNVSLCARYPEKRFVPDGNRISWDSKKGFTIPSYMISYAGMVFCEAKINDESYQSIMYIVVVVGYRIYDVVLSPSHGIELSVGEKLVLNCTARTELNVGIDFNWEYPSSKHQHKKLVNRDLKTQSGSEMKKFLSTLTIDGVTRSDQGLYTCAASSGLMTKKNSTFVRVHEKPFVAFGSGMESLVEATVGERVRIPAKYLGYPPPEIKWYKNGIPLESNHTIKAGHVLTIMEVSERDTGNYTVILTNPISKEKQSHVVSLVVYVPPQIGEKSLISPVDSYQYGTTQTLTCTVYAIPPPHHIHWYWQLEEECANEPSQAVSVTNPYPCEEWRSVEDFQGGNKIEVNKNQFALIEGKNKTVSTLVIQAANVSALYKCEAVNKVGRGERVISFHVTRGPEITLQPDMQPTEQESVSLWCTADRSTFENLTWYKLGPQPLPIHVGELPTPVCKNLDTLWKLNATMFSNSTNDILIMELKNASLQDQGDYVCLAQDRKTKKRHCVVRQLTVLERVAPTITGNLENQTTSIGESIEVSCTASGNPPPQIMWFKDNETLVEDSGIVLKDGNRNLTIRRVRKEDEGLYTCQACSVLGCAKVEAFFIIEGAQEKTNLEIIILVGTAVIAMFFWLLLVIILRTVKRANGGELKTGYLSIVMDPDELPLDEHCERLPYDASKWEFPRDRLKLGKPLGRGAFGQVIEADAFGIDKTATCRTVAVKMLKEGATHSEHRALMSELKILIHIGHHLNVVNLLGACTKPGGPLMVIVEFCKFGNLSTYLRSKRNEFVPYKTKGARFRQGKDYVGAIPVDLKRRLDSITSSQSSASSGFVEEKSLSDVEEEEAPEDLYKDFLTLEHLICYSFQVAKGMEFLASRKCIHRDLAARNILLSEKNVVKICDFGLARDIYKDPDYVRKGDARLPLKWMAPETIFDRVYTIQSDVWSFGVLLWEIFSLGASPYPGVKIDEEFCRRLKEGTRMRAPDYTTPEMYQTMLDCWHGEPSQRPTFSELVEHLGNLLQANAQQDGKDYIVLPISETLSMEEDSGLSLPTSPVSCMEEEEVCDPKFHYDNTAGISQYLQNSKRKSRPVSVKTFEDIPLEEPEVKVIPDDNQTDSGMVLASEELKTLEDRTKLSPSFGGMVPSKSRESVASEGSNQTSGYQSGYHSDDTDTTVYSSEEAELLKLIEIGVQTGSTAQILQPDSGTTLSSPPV

Row | Structure (SMILES) | SI (Selectivity index/therapeutical index) = CC50/IC50 (SARS-CoV-2) | IC50 [1] [µM] | IC50 [2] [µM] | IC50 [3] [µM] | Mean diameter of blood vessels (mm ± SD) [4] | IC50 (VEGFR-2) [µM] | IC50 (c-kit) [µM] | DNA content (%) G2/M (MCF7 cells [5]) [%] | DNA content (%) S (MCF7 cells [5]) [%] | DNA content (%) G0-G1 (MCF7 cells [5]) [%] | Potency against PaCa2 relative to Sunitinib [1] | further results
1 | CCN(CC)CCCC(C)Nc1ccnc2cc(Cl)ccc12 (stereo not drawn) [Chloroquine, reference compound] | 19.1 |  |  |  |  |  |  |  |  |  |  | 
2 | CS(=O)(=O)Oc1ccc(C(=O)/C=C2/C(=O)Nc3ccccc32)cc1 [Compound 6a, (E)-4-[2-(2-Oxoindolin-3-ylidene)acetyl]phenyl methanesulfonate] | 362.5 | 8.3 ± 0.44 | 6.85 ± 0.37 | 16.4 ± 0.7 | 3.20 ± 1.00 mm | 0.054 ± 0.0054 | 0.12 ± 0.012 | 2.67 | 43.25 | 54.08 |  | DNA content (%) Pre-G1 (MCF7 cells [5]): 34.71%
3 | CCS(=O)(=O)Oc1ccc(C(=O)/C=C2/C(=O)Nc3ccccc32)cc1 [Compound 6b, (E)-4-[2-(2-Oxoindolin-3-ylidene)acetyl]phenyl ethanesulfonate] | 23.8 | 5.6 ± 0.57 | 4.25 ± 0.23 | 12.8 ± 1.41 | 5.10 ± 1.00 mm | 0.0989 ± 0.0099 | 0.248 ± 0.0248 | 2.67 | 43.25 | 54.08 | three time folds | Cell cycle phase arrested (MCF7 cells [5]): arrests the cell cycle at G1/S phase; Decrease in cell population at G2/M relative to control (MCF7 cells [5]): 47.5%; Apoptosis (%) Late (MCF7 cells [6]): 22.91%; Apoptosis (%) Early (MCF7 cells [6]): 2.51%; Necrosis (MCF7 cells [6]): 9.29%; Apoptosis (%) Total (MCF7 cells [6]): 34.71%
4 | CCS(=O)(=O)Oc1ccc(C(=O)/C=C2/C(=O)Nc3ccc(Cl)cc32)cc1 [Compound 6c, (E)-4-[2-(5-Chloro-2-oxoindolin-3-ylidene)acetyl]phenyl ethanesulfonate] | 26.4 | 4.99 ± 0.29 | 4.28 ± 0.51 | 5.33 ± 0.46 | 5.1 mm and 5.13 ± 0.90 mm | 0.0369 ± 0.0037 | 0.0723 ± 0.0072 |  |  |  | about 3.4 folds | VEGFR-2 inhibitory potency relative to Sunitinib (VEGFR-2): 1.3 fold
5 | CS(=O)(=O)N(c1ccc(C(=O)/C=C2/C(=O)Nc3ccccc32)cc1)S(C)(=O)=O [Compound 10a, (E)-N-(Methylsulfonyl)-N-{4-[2-(2-oxoindolin-3-ylidene)acetyl]phenyl}methanesulfonamide] | 7.4 | 6.91 ± 0.89 | 6.07 ± 0.83 | 21 ± 1.75 | 3.50 ± 0.50 mm | 0.102 ± 0.0102 | 0.103 ± 0.0103 | 4.11 | 54.18 | 41.71 |  | DNA content (%) Pre-G1 (MCF7 cells [5]): 28.25%
6 | CCS(=O)(=O)N(c1ccc(C(=O)/C=C2/C(=O)Nc3ccccc32)cc1)S(=O)(=O)CC [Compound 10b, (E)-N-(Ethylsulfonyl)-N-{4-[2-(2-oxoindolin-3-ylidene)acetyl]phenyl}ethanesulfonamide] | 165.6 | 5.08 ± 0.57 | 4.15 ± 0.78 | 13.8 ± 1.06 | 2.70 ± 0.40 mm | 0.0741 ± 0.0074 | 0.185 ± 0.0185 |  | 54.18 |  | ~3.3 folds | Cell cycle phase arrested (MCF7 cells [5]): arrest the tested cell at S phase; Increment in S phase relative to control (MCF7 cells [5]): about 13%; Apoptosis (%) Late (MCF7 cells [6]): 17.15%; Apoptosis (%) Early (MCF7 cells [6]): 4.03%; Necrosis (MCF7 cells [6]): 7.07%; Apoptosis (%) Total (MCF7 cells [6]): 28.25%
7 | CCS(=O)(=O)N(c1ccc(C(=O)/C=C2/C(=O)Nc3ccc(Cl)cc32)cc1)S(=O)(=O)CC [Compound 10c, (E)-N-{4-[2-(5-Chloro-2-oxoindolin-3-ylidene)acetyl]phenyl}-N-(ethylsulfonyl)ethanesulfonamide] | 75.5 | 6.18 ± 0.32 | 4.43 ± 0.47 | > 50 | 5.0 mm and 5.00 ± 0.40 mm | 0.0534 ± 0.0053 | 0.0817 ± 0.0082 |  |  |  |  | Potency against MCF7 relative to Sunitinib ([2]; ratio of IC50 values): 0.9 fold; VEGFR-2 inhibitory potency relative to Sunitinib (VEGFR-2): 0.89 fold
8 | NC(=O)c1nc(F)c[nH]c1=O [Favipiravir, reference compound] | 1.9 |  |  |  |  |  |  |  |  |  |  | 
9 | CCN(CCO)CCCC(C)Nc1ccnc2cc(Cl)ccc12 (stereo not drawn) [Hydroxychloroquine, reference compound] | 12.2 |  |  |  |  |  |  |  |  |  |  | 
10 | CCN(CC)CCNC(=O)c1c(C)[nH]c(/C=C2\C(=O)Nc3ccc(F)cc32)c1C [Sunitinib, reference compound] |  | 16.9 ± 0.95 |  | 5.03 ± 0.3 | 5 mm and 5.0 mm and 5.00 ± 0.71 mm |  |  |  |  |  |  | 
